The test system of one data set is HepG2. Briefly: Cytotoxicity against human HepG2 cells after 24 hrs by MTS assay. The data set is classed as cell-based. The following applies: HepG2, 24 h. A general note: Tetrazolium dyes change colour on reduction, which living cells bring about.
In another data set the test system is Moraxella catarrhalis. Nature of the data set: Antibacterial activity against Moraxella catarrhalis ATCC 23246 by broth microdilution method. The data set is classed as functional. (Dilution methods test growth across graded concentrations, often in twofold steps.)
For another data set, the system named is Haemophilus influenzae. Briefly: Antibacterial activity against Haemophilus influenzae ATCC 49247 by broth microdilution method. The data set is classed as functional.
In another data set the test system is Streptococcus pneumoniae. Nature of the data set: Antibacterial activity against clinical isolate Streptococcus pneumoniae SP030. The data set is classed as functional.
In a further data set the test system is Staphylococcus aureus. Nature of the data set: Antibacterial activity against Staphylococcus aureus ATCC 13709 by broth microdilution method. The data set is classed as functional.
The test system of another data set is Streptococcus pyogenes. Nature of the data set: Antibacterial activity against clinical isolate Streptococcus pyogenes 3565. The data set is classed as functional.
Data set [1] relates to Plasmodium falciparum. Briefly: Antimalarial activity against chloroquine and pyrimethamine-resistant Plasmodium falciparum W2 infected in human A-positive erythrocytes assessed as inhibition of [3H]-hypoxanthine incorporation after 48 hrs by semi-automated microdilution technique. The data set is classed as functional, organism-based.
The test system of data set [2] is Plasmodium falciparum. Nature of the data set: Antimalarial activity against chloroquine-sensitive Plasmodium falciparum 3D7A infected in human A-positive erythrocytes assessed as inhibition of [3H]-hypoxanthine incorporation after 48 hrs by semi-automated microdilution technique. The data set is classed as functional, organism-based.
Data set [3] deals with Plasmodium falciparum. Nature of the data set: Ratio of chloroquine IC50 to compound IC50 for […] Plasmodium falciparum W2. The data set is classed as functional.
Data set [4] deals with Plasmodium falciparum. Briefly: Ratio of azithromycin IC50 to compound IC50 for chloroquine-sensitive Plasmodium falciparum 3D7A. The data set is classed as functional.
Data set [5] can be described thus: Oral bioavailability in CD1 mouse at 12.5 mg/kg by LC-MS/Ms analysis. The data set is classed as ADME, organism-based. The following applies: in vivo.
Data set [6] in a line: Clearance in CD1 mouse at 12.5 mg/kg, iv and 12.5 mg/kg, po by LC-MS/Ms analysis. The data set is classed as ADME, organism-based. The following applies: in vivo.
The test system of a further data set is Mus musculus. Briefly: Dose normalized AUC in CD1 mouse at 12.5 mg/kg, po by LC-MS/Ms analysis. The data set is classed as ADME, organism-based. Also noted: dose 12.5 mg/kg, route oral. The following applies: in vivo.
Data set [7] in a line: Volume of distribution at steady state in CD1 mouse at 12.5 mg/kg, iv and 12.5 mg/kg, po by LC-MS/Ms analysis. The data set is classed as ADME, organism-based. The following applies: in vivo, read-out: Vdss.
Data set [8] can be described thus: Half life in CD1 mouse at 12.5 mg/kg, iv and 12.5 mg/kg, po by LC-MS/Ms analysis. The data set is classed as ADME, organism-based. The following applies: in vivo.
Data set [9] relates to Plasmodium falciparum. Briefly: Ratio of azithromycin IC50 to compound IC50 for chloroquine and pyrimethamine-resistant Plasmodium falciparum W2. The data set is classed as functional.
Data set [10] in a line: Ratio of drug level in blood to plasma of CD1 mouse at 12.5 mg/kg, iv and 12.5 mg/kg, po by LC-MS/Ms analysis. The data set is classed as ADME, organism-based.
The test system of data set [11] is Liver microsomes. Briefly: Intrinsic clearance in human liver microsomes assessed per gram of liver at 1 uM after 60 mins by LC-MS/Ms analysis. The data set is classed as ADME, Microsome. The following applies: 1 h. On the technique in general: Liver microsomes are vesicles of endoplasmic reticulum, rich in cytochrome P450 enzymes.
Data set [12] relates to Liver microsomes. Briefly: Intrinsic clearance in rat liver microsomes assessed per gram of liver at 1 uM after 60 mins by LC-MS/Ms analysis. The data set is classed as ADME, Microsome. The following applies: 1 h.
A further data set deals with Liver. Nature of the data set: Intrinsic clearance in mouse liver microsomes assessed per gram of liver at 1 uM after 60 mins by LC-MS/Ms analysis. The following applies: 1 h. The data set is classed as ADME, Microsome.

This is an account of results in ChEMBL document CHEMBL1944516, “Novel hybrid molecules based on 15-membered azalide as potential antimalarial agents” (Eur J Med Chem, 2012).

In brackets after ≈: the same amount, converted by molar mass.

In general, IC50 refers to the midpoint of a concentration-inhibition curve. In the case of `CC[C@H]1OC(=O)[C@H](C)[C@@H](O)[C@H](C)[C@@H](O[C@@H]2O[C@H](C)C[C@H](N(C)CCCNc3ccnc4cc(Cl)ccc34)[C@H]2O)[C@](C)(O)C[C@@H](C)CN(C)[C@H](C)[C@@H](O)[C@]1(C)O`, in the data set on HepG2, half-maximal inhibition (IC50) was put at 14 µM. For the same compound, the MIC with Moraxella catarrhalis was 32 µg/mL (≈ 40.2 µM); in the data set with Haemophilus influenzae it was over 64 µg/mL; in the data set on Streptococcus pneumoniae it was over 64 µg/mL; against Staphylococcus aureus, over 64 µg/mL; in the data set on Streptococcus pyogenes it was over 64 µg/mL.
As for `CC[C@H]1OC(=O)[C@H](C)[C@@H](O[C@H]2C[C@@](C)(OC)[C@@H](O)[C@H](C)O2)[C@H](C)[C@@H](O[C@@H]2O[C@H](C)C[C@H](N(C)C(=O)CNc3ccnc4cc(Cl)ccc34)[C@H]2O)[C@](C)(O)C[C@@H](C)CN(C)[C@H](C)[C@@H](O)[C@]1(C)O`, the IC50 in the data set on HepG2 was found to be 27 µM; in the data set on Plasmodium falciparum [1], 0.013 µM; in the data set on Plasmodium falciparum [2], 0.01 µM. For the same compound, the MIC was 8 µg/mL (≈ 8.39 µM) against Moraxella catarrhalis; over 64 µg/mL in the data set on Haemophilus influenzae; 2 µg/mL (≈ 2.1 µM) in the data set on Streptococcus pneumoniae; 16 µg/mL (≈ 16.8 µM) against Staphylococcus aureus; 4 µg/mL (≈ 4.19 µM) in the data set on Streptococcus pyogenes.
In general, bioavailability refers to dose-corrected exposure relative to a reference, in per cent. Read a low bioavailability as poor availability. As usually defined, the half-life is the time needed for the level to fall by half in the phase considered. With `CC[C@H]1OC(=O)[C@H](C)[C@@H](O[C@H]2C[C@@](C)(OC)[C@@H](O)[C@H](C)O2)[C@H](C)[C@@H](O[C@@H]2O[C@H](C)C[C@H](N(C)CCCNC(=O)CCCNc3ccnc4cc(Cl)ccc34)[C@H]2O)[C@](C)(O)C[C@@H](C)CN(C)[C@H](C)[C@@H](O)[C@]1(C)O`, the results for the “Ratio IC50” value in the data set with Plasmodium falciparum [3], in the data set with Plasmodium falciparum [4] and in the data set with Plasmodium falciparum [9] were 9, 56 and 150, respectively. In addition, the bioavailability in data set [5] is 5%. In [6], this compound registered a clearance of 47.7 mL/min/kg. The AUC/dose with Mus musculus is 13.28 ng·h/mL. The IC50 was over 50 µM with HepG2, 0.048 µM in the data set on Plasmodium falciparum [1] and 0.077 µM in the data set on Plasmodium falciparum [2]. For the same compound, the MIC against Moraxella catarrhalis is 4 µg/mL (≈ 3.85 µM); against Haemophilus influenzae it was over 64 µg/mL; in the data set on Streptococcus pneumoniae it was 4 µg/mL (≈ 3.85 µM); in the data set with Staphylococcus aureus, over 64 µg/mL; in the data set on Streptococcus pyogenes it was 16 µg/mL (≈ 15.4 µM). Moreover, the Vd in [7] was 116 L/kg. In data set [8], this compound gave a half-life of 63.9 h. In addition, the blood plasma ratio in data set [10] was 1. Besides, the CLint in the data set on Liver microsomes [11], in the data set with Liver microsomes [12] and in the data set on Liver was under 0.6 mL/min/g in each case.
For the compound `CC[C@H]1OC(=O)[C@H](C)[C@@H](O[C@H]2C[C@@](C)(OC)[C@@H](O)[C@H](C)O2)[C@H](C)[C@@H](O[C@@H]2O[C@H](C)C[C@H](N(C)CCCNc3ccnc4cc(Cl)ccc34)[C@H]2O)[C@](C)(O)C[C@@H](C)CN(C)[C@H](C)[C@@H](O)[C@]1(C)O`, it took 3 µM to reach half-maximal inhibition in the data set with HepG2 (IC50). Also, the MIC with Moraxella catarrhalis was 1 µg/mL (≈ 1.05 µM); against Haemophilus influenzae, over 64 µg/mL; in the data set with Streptococcus pneumoniae, 8 µg/mL (≈ 8.39 µM); in the data set on Staphylococcus aureus it was over 64 µg/mL; in the data set with Streptococcus pyogenes, 16 µg/mL (≈ 16.8 µM).
In the case of `CC[C@H]1OC(=O)[C@H](C)[C@@H](O[C@H]2C[C@@](C)(OC)[C@@H](O)[C@H](C)O2)[C@H](C)[C@@H](O[C@@H]2O[C@H](C)C[C@H](N(C)Cc3cn(CCCNc4ccnc5cc(Cl)ccc45)nn3)[C@H]2O)[C@](C)(O)C[C@@H](C)CN(C)[C@H](C)[C@@H](O)[C@]1(C)O`, the MIC against Moraxella catarrhalis is 2 µg/mL (≈ 1.93 µM); in the data set with Haemophilus influenzae, over 64 µg/mL; against Streptococcus pneumoniae, 0.5 µg/mL (≈ 0.483 µM); in the data set on Staphylococcus aureus, 16 µg/mL (≈ 15.5 µM); in the data set on Streptococcus pyogenes, 0.5 µg/mL (≈ 0.483 µM).
Take `CC[C@H]1OC(=O)[C@H](C)[C@@H](O[C@H]2C[C@@](C)(OC)[C@@H](O)[C@H](C)O2)[C@H](C)[C@@H](O[C@@H]2O[C@H](C)C[C@H](N(C)C)[C@H]2O)[C@](C)(O)C[C@@H](C)CN(C)[C@H](C)[C@@H](O)[C@]1(C)O` [AZITHROMYCIN]: the IC50 with HepG2 amounted to 203 µM; in the data set on Plasmodium falciparum [1], 2.68 µM; in the data set with Plasmodium falciparum [2], 11.5 µM. Besides, the MIC against Moraxella catarrhalis stood at 0.06 µg/mL (≈ 0.0801 µM); against Haemophilus influenzae, 2 µg/mL (≈ 2.67 µM); against Streptococcus pneumoniae it was 0.06 µg/mL (≈ 0.0801 µM); in the data set on Staphylococcus aureus, 1 µg/mL (≈ 1.34 µM); against Streptococcus pyogenes, 0.125 µg/mL (≈ 0.167 µM).
As for `CC[C@H]1OC(=O)[C@H](C)[C@@H](O)[C@H](C)[C@@H](O[C@@H]2O[C@H](C)C[C@H](N(C)CCCNC(=O)CCCNc3ccnc4cc(Cl)ccc34)[C@H]2O)[C@](C)(O)C[C@@H](C)CN(C)[C@H](C)[C@@H](O)[C@]1(C)O`, the “Ratio IC50” value in the data set with Plasmodium falciparum [4] and in the data set on Plasmodium falciparum [9] was 9 in each case. Also, the IC50 was over 50 µM in the data set on HepG2, 0.295 µM with Plasmodium falciparum [1] and 0.636 µM with Plasmodium falciparum [2]. For the same compound, the MIC against Moraxella catarrhalis, with Haemophilus influenzae, with Streptococcus pneumoniae, against Staphylococcus aureus and against Streptococcus pyogenes was over 64 µg/mL each time.
For the compound `CC[C@H]1OC(=O)[C@H](C)[C@@H](O[C@H]2C[C@@](C)(OC)[C@@H](O)[C@H](C)O2)[C@H](C)[C@@H](O[C@@H]2O[C@H](C)C[C@H](N(C)C(=O)CCCNc3ccnc4cc(Cl)ccc34)[C@H]2O)[C@](C)(O)C[C@@H](C)CN(C)[C@H](C)[C@@H](O)[C@]1(C)O`, the “Ratio IC50” value in the data set with Plasmodium falciparum [3] is given as 5; with Plasmodium falciparum [4], 111; in the data set on Plasmodium falciparum [9] it was 29. For the same compound, the values for the IC50 in the data set on HepG2, with Plasmodium falciparum [1] and in the data set on Plasmodium falciparum [2] were over 50 µM, 0.093 µM and 0.104 µM, respectively. Moreover, the MIC was 4 µg/mL (≈ 4.07 µM) in the data set with Moraxella catarrhalis; over 64 µg/mL with Haemophilus influenzae; 8 µg/mL (≈ 8.15 µM) against Streptococcus pneumoniae; over 64 µg/mL in the data set with Staphylococcus aureus; 16 µg/mL (≈ 16.3 µM) in the data set with Streptococcus pyogenes.
